The structures appear in SMILES notation. pEC50: −log10 of the molar value.

In one assay the target is T1, Gal4-RORγ-LBD (Homo sapiens, UniProt P51449).
T1 construct: expressed in transfected cells; host or cells: HEK-293 cells (pcDNA3.1neo plasmid)
T1 sequence (P51449 269-508 limits assumed): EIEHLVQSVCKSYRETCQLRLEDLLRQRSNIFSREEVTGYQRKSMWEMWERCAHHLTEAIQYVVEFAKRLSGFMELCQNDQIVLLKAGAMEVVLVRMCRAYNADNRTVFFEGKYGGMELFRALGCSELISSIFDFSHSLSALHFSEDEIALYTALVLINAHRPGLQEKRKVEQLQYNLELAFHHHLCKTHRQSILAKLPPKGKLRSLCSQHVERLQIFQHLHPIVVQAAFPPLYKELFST
Briefly: Gal4-RORγ Luciferase Reporter Assay in HEK-293T Cells. The conditions noted are these: HEK-293 cells. The class given is cell-based. An outline of the steps: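 HEK-293 cells were transiently co-transfected with Gal4-RORγ-LBD and pGL4.31 Gal4-luciferase, with ursolic acid added at 2 μM final. Compounds were incubated overnight at 37° C. in 0.2% DMSO and luminescence read with One-Glo. Max Response is the upper plateau of a 4-parameter logistic fit, with signal lacking ursolic acid or compound set to 100.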
For orientation: A reporter such as luciferase makes a cellular process visible.

A further assay has as its target T2, RORγ-LBD (Homo sapiens, UniProt P51449).
T2 construct: made in house; host or cells: SF9 cells (baculovirus)
T2 sequence (P51449 269-508 limits assumed): T1 sequence (P51449 269-508 limits assumed)
As to the kind of experiment: RORγ-Ligand Binding Domain (LBD) TR-FRET Assay.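 For TR-FRET Assay Max Response: 665/615 nm ratio relative to signal without ursolic acid or compound set at 100.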 The class given is biochemical. An outline of the steps:
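Compounds, diluted in DMSO and then in assay buffer (1% DMSO final), were combined with His-tagged RORγ-LBD lysate at roughly 3 nM final and a 200 nM biotinylated SRC1 LXXLL peptide. Ursolic acid was included at 2 μM final. Coactivator recruitment was detected by TR-FRET.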
On the technique in general: In TR-FRET formats the signal depends on donor and acceptor labels being close together.

Setting [1] is: luciferase reporter, with 2 μM ursolic acid.

On to `COc1cc(S(=O)(=O)N2C[C@H](CNC(=O)[C@@](C)(O)C(F)(F)F)Oc3ccc(-c4cccc(C(F)(F)F)n4)cc32)ccc1F` [Compound 30CC, (R)-3,3,3-trifluoro-N-(((S)-4-((4-fluoro-3-methoxyphenyl)-sulfonyl)-6-(6-(trifluoromethyl)-pyridin-2-yl)-3,4-dihydro-2H-benzo[b][1,4]oxazin-2-yl)methyl)-2-hydroxy-2-methylpropanamide], for which, on Gal4-RORγ-LBD (2 μM ursolic acid), the pEC50 was above 6.30 and the “Gal4-RORγ Assay Max Response” value is listed as “** (The symbol “**” indicates a value in the range of greater than 90 to 150)”. For the same molecule, at RORγ-LBD, the pEC50 was above 6.30 and the “TR-FRET Assay Max Response” value was “*** (The symbol “***” indicates a value in the range of greater than 150 to 200)”.

Consider `Cn1cc(C(=O)NC[C@H]2CN(S(=O)(=O)c3cccc(C(F)(F)F)c3)c3cc(-c4cccc(F)c4Cl)ccc3O2)cn1` [Compound 30CD, (S)-N-((6-(2-chloro-3-fluoro-phenyl)-4-((3-(trifluoromethyl)-phenyl)sulfonyl)-3,4-dihydro-2H-benzo[b][1,4]oxazin-2-yl)methyl)-1-methyl-1H-pyrazole-4-carboxamide], for which, at Gal4-RORγ-LBD (2 μM ursolic acid), the pEC50 was above 6.30 and the “Gal4-RORγ Assay Max Response” value is recorded as “** (The symbol “**” indicates a value in the range of greater than 90 to 150)”. Moreover, at RORγ-LBD, the pEC50 is above 6.30 and the “TR-FRET Assay Max Response” value was “*** (The symbol “***” indicates a value in the range of greater than 150 to 200)”.

Consider `CC(F)(F)C(=O)NC[C@H]1CN(S(=O)(=O)c2cccc(C(F)(F)F)c2)c2cc(-c3cccc(F)c3Cl)ccc2O1` [Compound 30CE, (S)-N-((6-(2-chloro-3-fluoro-phenyl)-4-((3-(trifluoromethyl)-phenyl)sulfonyl)-3,4-dihydro-2H-benzo[b][1,4]oxazin-2-yl)methyl)-2,2-difluoro-propanamide], for which, on Gal4-RORγ-LBD (2 μM ursolic acid), the pEC50 is above 6.30 and the “Gal4-RORγ Assay Max Response” value is “* (The symbol “*” indicates a value in the range of 25 to 90)”. Moreover, at RORγ-LBD, the pEC50 was above 6.30 and the “TR-FRET Assay Max Response” value is on record as “*** (The symbol “***” indicates a value in the range of greater than 150 to 200)”.

In the case of `O=C(NC[C@H]1CN(S(=O)(=O)c2cccc(C(F)(F)F)c2)c2cc(-c3cccc(F)c3Cl)ccc2O1)C1CC1` [Compound 30CF, (S)-N-((6-(2-chloro-3-fluoro-phenyl)-4-((3-(trifluoromethyl)-phenyl)sulfonyl)-3,4-dihydro-2H-benzo[b][1,4]oxazin-2-yl)methyl)cyclopropanecarbox-amide], on Gal4-RORγ-LBD (2 μM ursolic acid), the pEC50 was above 6.30 and the “Gal4-RORγ Assay Max Response” value is “** (The symbol “**” indicates a value in the range of greater than 90 to 150)”. Further, on RORγ-LBD, the negative-log EC50 (pEC50) was above 6.30 and the “TR-FRET Assay Max Response” value is “**** (The symbol “****” indicates a value greater than 200)”.

As for `CC(C)(O)CC(=O)NC[C@H]1CN(S(=O)(=O)c2cccc(C(F)(F)F)c2)c2cc(-c3cccc(F)c3Cl)ccc2O1` [Compound 30CG, (S)-N-((6-(2-chloro-3-fluoro-phenyl)-4-((3-(trifluoromethyl)-phenyl)sulfonyl)-3,4-dihydro-2H-benzo[b][1,4]oxazin-2-yl)methyl)-3-hydroxy-3-methylbutanamide], on Gal4-RORγ-LBD (2 μM ursolic acid), the pEC50 was 5.30 to 6.30 and the “Gal4-RORγ Assay Max Response” value is recorded as “* (The symbol “*” indicates a value in the range of 25 to 90)”. For the same molecule, at RORγ-LBD, the negative logarithm of the EC50 (pEC50) is above 6.30 and the “TR-FRET Assay Max Response” value is recorded as “*** (The symbol “***” indicates a value in the range of greater than 150 to 200)”.

As to `COCCC(=O)NC[C@H]1CN(S(=O)(=O)c2cccc(C(F)(F)F)c2)c2cc(-c3cccc(F)c3Cl)ccc2O1` [Compound 30CH, (S)-N-((6-(2-chloro-3-fluoro-phenyl)-4-((3-(trifluoromethyl)-phenyl)sulfonyl)-3,4-dihydro-2H-benzo[b][1,4]oxazin-2-yl)methyl)-3-methoxy-propanamide], on Gal4-RORγ-LBD (2 μM ursolic acid), the negative-log EC50 (pEC50) was 5.30 to 6.30 and the “Gal4-RORγ Assay Max Response” value is “* (The symbol “*” indicates a value in the range of 25 to 90)”. On RORγ-LBD, the pEC50 is above 6.30 and the “TR-FRET Assay Max Response” value is “*** (The symbol “***” indicates a value in the range of greater than 150 to 200)”.

Turning to `CO[C@@H](C)C(=O)NC[C@H]1CN(S(=O)(=O)c2cccc(C(F)(F)F)c2)c2cc(-c3cccc(F)c3Cl)ccc2O1` [Compound 30CI, (S)-N-(((S)-6-(2-chloro-3-fluorophenyl)-4-((3-(trifluoro-methyl)phenyl)sulfonyl)-3,4-dihydro-2H-benzo[b][1,4]-oxazin-2-yl)methyl)-2-methoxypropanamide], at Gal4-RORγ-LBD (2 μM ursolic acid), the pEC50 was 5.30 to 6.30 and the “Gal4-RORγ Assay Max Response” value is given as “* (The symbol “*” indicates a value in the range of 25 to 90)”. Also, on RORγ-LBD, the pEC50 was above 6.30 and the “TR-FRET Assay Max Response” value was “*** (The symbol “***” indicates a value in the range of greater than 150 to 200)”.

In the case of `CC(=O)N[C@H](C)C(=O)NC[C@H]1CN(S(=O)(=O)c2cccc(C(F)(F)F)c2)c2cc(-c3cccc(F)c3Cl)ccc2O1` [Compound 30CJ, (R)-2-acetamido-N-(((S)-6-(2-chloro-3-fluorophenyl)-4-((3-(trifluoromethyl)phenyl)-sulfonyl)-3,4-dihydro-2H-benzo[b][1,4]oxazin-2-yl)methyl)propanamide], on Gal4-RORγ-LBD (2 μM ursolic acid), the pEC50 is 5.30 to 6.30 and the “Gal4-RORγ Assay Max Response” value was “* (The symbol “*” indicates a value in the range of 25 to 90)”. Moreover, on RORγ-LBD, the pEC50 was above 6.30 and the “TR-FRET Assay Max Response” value is “** (The symbol “**” indicates a value in the range of greater than 90 to 150)”.

As to `CC(F)C(=O)NC[C@H]1CN(S(=O)(=O)c2cccc(C(F)(F)F)c2)c2cc(-c3cccc(F)c3Cl)ccc2O1` (stereo partly drawn) [Compound 30CK, N-(((S)-6-(2-chloro-3-fluoro-phenyl)-4-((3-(trifluoromethyl)-phenyl)sulfonyl)-3,4-dihydro-2H-benzo[b][1,4]oxazin-2-yl)methyl)-2-fluoropropanamide], on Gal4-RORγ-LBD (2 μM ursolic acid), the pEC50 was 5.30 to 6.30 and the “Gal4-RORγ Assay Max Response” value was “* (The symbol “*” indicates a value in the range of 25 to 90)”. Moreover, at RORγ-LBD, the pEC50 is above 6.30 and the “TR-FRET Assay Max Response” value was “** (The symbol “**” indicates a value in the range of greater than 90 to 150)”.

For the molecule `CC(C)(C(=O)NC[C@H]1CN(S(=O)(=O)c2cccc(C(F)(F)F)c2)c2cc(-c3cc(F)cc(F)c3Cl)ccc2O1)C(F)(F)F` [Compound 30CL, (S)-N-((6-(2-chloro-3,5-difluoro-phenyl)-4-((3-(trifluoromethyl)-phenyl)sulfonyl)-3,4-dihydro-2H-benzo[b][1,4]oxazin-2-yl)methyl)-3,3,3-trifluoro-2,2-dimethylpropanamide], at Gal4-RORγ-LBD (2 μM ursolic acid), the negative-log EC50 (pEC50) was 5.30 to 6.30 and the “Gal4-RORγ Assay Max Response” value is listed as “* (The symbol “*” indicates a value in the range of 25 to 90)”. Also, on RORγ-LBD, the pEC50 is 5.30 to 6.30 and the “TR-FRET Assay Max Response” value is “** (The symbol “**” indicates a value in the range of greater than 90 to 150)”.

`CC(=O)NC(C)(C)C[C@H]1CN(S(=O)(=O)c2cccc(C(F)(F)F)c2)c2cc(-c3cc(F)ccc3F)ccc2O1` [Compound 30CV, (S)-N-(1-(6-(2,5-difluoro-phenyl)-4-((3-(trifluoromethyl)-phenyl)sulfonyl)-3,4-dihydro-2H-benzo[b][1,4]oxazin-2-yl)-2-methylpropan-2-yl)acetamide]: on Gal4-RORγ-LBD (2 μM ursolic acid), the pEC50 is above 6.30 and the “Gal4-RORγ Assay Max Response” value is listed as “* (The symbol “*” indicates a value in the range of 25 to 90)”. At RORγ-LBD, the pEC50 was above 6.30 and the “TR-FRET Assay Max Response” value is “*** (The symbol “***” indicates a value in the range of greater than 150 to 200)”.

Consider `CC(C)(C[C@H]1CN(S(=O)(=O)c2cccc(C(F)(F)F)c2)c2cc(-c3cc(F)ccc3F)ccc2O1)NC(=O)C(C)(C)O` [Compound 30CX, (S)-N-(1-(6-(2,5-difluoro-phenyl)-4-((3-(trifluoromethyl)-phenyl)sulfonyl)-3,4-dihydro-2H-benzo[b][1,4]oxazin-2-yl)-2-methylpropan-2-yl)-2-hydroxy-2-methylpropanamide], for which, at Gal4-RORγ-LBD (2 μM ursolic acid), the pEC50 is above 6.30 and the “Gal4-RORγ Assay Max Response” value is reported as “* (The symbol “*” indicates a value in the range of 25 to 90)”. On RORγ-LBD, the pEC50 is above 6.30 and the “TR-FRET Assay Max Response” value is listed as “** (The symbol “**” indicates a value in the range of greater than 90 to 150)”.

`CC(C)c1cccc(S(=O)(=O)N2C[C@H](CCNC(=O)C(C)(C)O)Oc3ccc(-c4cc(F)ccc4F)cc32)c1` [Compound 30D, (S)-N-(2-(6-(2,5-difluoro-phenyl)-4-((3-isopropylphenyl)-sulfonyl)-3,4-dihydro-2H-benzo[b][1,4]oxazin-2-yl)ethyl)-2-hydroxy-2-methylpropanamide]: at Gal4-RORγ-LBD (setting [1]), the negative-log EC50 (pEC50) was above 6.30 and the “Gal4-RORγ Assay Max Response” value is “* (The symbol “*” indicates a value in the range of 25 to 90)”. For the same molecule, at RORγ-LBD, the pEC50 is above 6.30 and the “TR-FRET Assay Max Response” value was “**** (The symbol “****” indicates a value greater than 200)”.

The term pEC50 denotes the EC50 on a negative log10 scale, so that one unit is a factor of ten. A high value points to a small EC50.

(Values after US10611740B2, “Aryl dihydro-2H-benzo[b][1,4]oxazine sulfonamide and related compounds for use as agonists of RORγ and the treatment of disease” (Lycera Corporation, priority 2015, dated 2020).)
